According to the supplement of paper PMC12370961:

Experiments:
Assay in all cases: differential drug sensitivity score (dDSS) relative to sarcoma reference cohort mean DSS (DSS units (0-100 scale difference)); higher = more selective sensitivity than reference sarcomas
Details in all cases: exposure time: 72 h; concentration range: 10-10000 nM
ES-ZH001 = system: ES-ZH001 (patient-derived Ewing sarcoma tumoroid)
Method: (§1)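 Drug response profiling of patient-derived Ewing sarcoma and CIC::DUX4 sarcoma tumoroid models (or cells tested directly after isolation from the tumor, 'direct'). The DSS is the normalised AUC (0-100); dDSS is the sample DSS minus the mean DSS of a 34-sarcoma reference cohort profiled in the same lab.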

ES-ZH007 = system: ES-ZH007 (patient-derived Ewing sarcoma tumoroid)
Method: as §1

CDS-ZH002 direct = system: CDS-ZH002 direct (CIC-DUX4 sarcoma cells right after isolation)
Method: as §1

ES-ZH009 = system: ES-ZH009 (patient-derived Ewing sarcoma tumoroid)
Method: as §1

CDS-ZH002 = system: CDS-ZH002 (patient-derived CIC-DUX4 sarcoma tumoroid)
Method: as §1

CDS-ZH001-2 = system: CDS-ZH001-2 (patient-derived CIC-DUX4 sarcoma tumoroid)
Method: as §1

CDS-ZH003 = system: CDS-ZH003 (patient-derived CIC-DUX4 sarcoma tumoroid)
Method: as §1

ES-ZH016 = system: ES-ZH016 (patient-derived Ewing sarcoma tumoroid)
Method: as §1

ES-ZH008 = system: ES-ZH008 (patient-derived Ewing sarcoma tumoroid)
Method: as §1

ES-ZH002 = system: ES-ZH002 (patient-derived Ewing sarcoma tumoroid)
Method: as §1

ES-ZH004 = system: ES-ZH004 (patient-derived Ewing sarcoma tumoroid)
Method: as §1

CDS-ZH001 = system: CDS-ZH001 (patient-derived CIC-DUX4 sarcoma tumoroid)
Method: as §1

ES-ZH016 direct = system: ES-ZH016 direct (Ewing sarcoma cells right after isolation)
Method: as §1

Row | Structure (SMILES) | differential drug sensitivity score (ES-ZH001) | differential drug sensitivity score (ES-ZH007) | differential drug sensitivity score (CDS-ZH002 direct) | differential drug sensitivity score (ES-ZH009) | differential drug sensitivity score (CDS-ZH002) | differential drug sensitivity score (CDS-ZH001-2) | differential drug sensitivity score (CDS-ZH003) | differential drug sensitivity score (ES-ZH016) | differential drug sensitivity score (ES-ZH008) | differential drug sensitivity score (ES-ZH002) | differential drug sensitivity score (ES-ZH004) | differential drug sensitivity score (CDS-ZH001) | differential drug sensitivity score (ES-ZH016 direct)
1 | CNC(=O)Nc1ccc2c(c1)CC[C@@]21OC(=O)N(CC(=O)N(Cc2ccc(F)cc2)[C@@H](C)C(F)(F)F)C1=O [A-485] | 4.6 | 2.9 | 6.8 | 2.6 | 6.8 | -2.1 | 22.3 | -4 | 1.4 | 5.2 | -3.4 | 8.4 | -5.4
2 | C#Cc1cccc(Nc2ncnc3cc(OCCOC)c(OCCOC)cc23)c1 [Erlotinib] | -1.1 | -1.1 | -1.1 | -1.1 | -1.1 | -1.1 | -1.1 | -1.1 | -1.1 | -1.1 | -1.1 | -1.1 | -1.1
3 | O=C(O)CNC(=O)c1c(O)c2ccccc2n(Cc2ccccc2)c1=O [IOX2] | 3.2 | -0.7 | 1 | -1.5 | -1.3 | -1.5 | 3.7 | -1.5 | 3.7 | 5.1 | 0.7 | -1.5 | -1.5
4 | CN(C)Cc1c(C(=O)NCCOc2ccc(C(=O)NO)cc2)oc2ccccc12 [Abexinostat] | 5.3 | 4.9 | -0.7 | 10.5 | 0.1 | 4.2 | -11.2 | 4.3 | 9.6 | 3.9 | 3.2 | -3.5 | 2.4
5 | CO[C@H]1C[C@@H]2CC[C@@H](C)[C@@](O)(O2)C(=O)C(=O)N2CCCC[C@H]2C(=O)O[C@H]([C@H](C)C[C@@H]2CC[C@@H](OC(=O)C(C)(CO)CO)[C@H](OC)C2)CC(=O)[C@H](C)/C=C(\C)[C@@H](O)[C@@H](OC)C(=O)[C@H](C)C[C@H](C)/C=C/C=C/C=C/1C [Temsirolimus] | 6.2 | 5.9 | 4.8 | 11.1 | -7 | 4 | 2.1 | -3 | 3.1 | 15.8 | 8.3 | 0.8 | -6.2
6 | C=CC(=O)N1CCN(c2nc(=O)n(-c3c(C)ccnc3C(C)C)c3nc(-c4c(O)cccc4F)c(F)cc23)[C@@H](C)C1 [Sotorasib] | 4.7 | -3.1 | 1.9 | 5.5 | -0.1 | 0.9 | -4.3 | 2.8 | 4.1 | 10.6 | 5.9 | 2.7 | 6.3
7 | COc1ccc(-c2ccc3c(N4CCOC[C@@H]4C)nc(N4CCOC[C@@H]4C)nc3n2)cc1CO [AZD8055] | 0.8 | 4.7 | -2.1 | 9.6 | -10.9 | 0.8 | 8.6 | 2 | 7.6 | 12.1 | 4.9 | 1.6 | -8.5
8 | COc1cc([C@@H]2c3cc4c(cc3[C@@H](O[C@@H]3O[C@@H]5CO[C@@H](C)O[C@H]5[C@H](O)[C@H]3O)[C@H]3COC(=O)[C@H]23)OCO4)cc(OC)c1O [Etoposide] | 10 | 6.1 | -7.3 | 8.6 | -4.3 | 3.8 | -6.8 | 8.7 | 13.6 | 25.5 | 11.7 | -1.6 | 7.2
9 | Cc1ccc(C(=O)Nc2ccc(CN3CCN(C)CC3)c(C(F)(F)F)c2)cc1C#Cc1cnc2cccnn12 [Ponatinib] | 5.6 | -2.6 | -3.1 | 0.2 | -3.6 | -3.9 | -0.9 | -3.6 | 3.2 | 10 | 0.5 | -6.2 | 7.8
10 | Nc1cccc2c1C(=O)N(C1CCC(=O)NC1=O)C2=O (centres undefined) [Pomalidomide] | -1.1 | -1.2 | -1.4 | -1.3 | -1.4 | -1.4 | -1.3 | -1.4 | 3 | 6.4 | 0.4 | -0.6 | -1.2
11 | NS(=O)(=O)OC[C@@H]1C[C@@H](n2ccc3c(N[C@H]4CCc5ccccc54)ncnc32)C[C@@H]1O [Pevonedistat] | 11.4 | 3.6 | 7.6 | 2.9 | -1.6 | -2.1 | 0.7 | 8.3 | 5.9 | 9.3 | 2.4 | 8.7 | 1.9
12 | Nc1ccccc1NC(=O)c1ccc(CNC(=O)OCc2cccnc2)cc1 [Entinostat] | 0.2 | 5.5 | 1.3 | 2.1 | -3 | 0.5 | -2.1 | -0.2 | 5.6 | 4.9 | 7.1 | -4.9 | 5.6
13 | COc1cc2nccc(Oc3ccc(NC(=O)C4(C(=O)Nc5ccc(F)cc5)CC4)cc3)c2cc1OC [Cabozantinib] | 3.6 | -1 | -2 | -1.5 | -2.6 | -2.6 | -1.5 | -2.4 | 1.7 | 3.4 | 5.9 | -2.6 | -2.6
